Measurements as given in patent US20230390409A1, “FAP-ACTIVATED SERUM EXTENDED HALF-LIFE THERAPEUTIC CONJUGATES” (Avacta Life Sciences Limited, priority 2020, published 2023).

B1: 42CQ-6501: 42CQ, an AFFIMER polypeptide binding serum albumin (SEQ ID NO: 133), conjugated with 6501 (conjugate)
chain: MIPRGLSEAKPATPEIQEIVDKVKPQLEEKTNETYGKLEAVQYKTQVLANFFQRRWPGSTNYYIKVRAGDNKYMHLKVFNGPWKFRNTDRGADRVLTGYQVDKNKDDELTGFAAAGGRAEQKLISEEDLGCAENLYFQGGAAGHHHHHH
modifications: conjugated with 6501

Key:
mouse tumor model = assay: EC50 / maximum tolerated dose studies, mice; type: in vivo
Procedure: (§1) Half-maximal effective concentration (EC50) studies were undertaken to examine the difference between mice and rats administered talabostat alone (FIG. 4A) and mice and rats administered the therapeutic conjugates comprising talabostat (FIG. 4B). When talabostat is administered alone, the talabostat maximum tolerated dose (MTD) is about 3 mg/m^2 in a mouse tumor model and 0.18 mg/m^2 in rats. That is, the talabostat MTD is 1/17 the tumor model EC50 (FIG. 4A). In contrast, when the talabostat is administered as part of the therapeutic conjugate, the MTD is 160 mg/m^2 in the mouse model and the EC50 for rats is greater than 500 mg/m^2 (FIG. 4B). Talabostat, as part of the therapeutic conjugate, can be administered to rats and mice at therapeutically effective doses.

rats = assay: EC50 / maximum tolerated dose studies, rats; type: in vivo, rat
Procedure: as §1

G-CSF [1] = conditions: VbP alone, known; cited from earlier work
G-CSF [2] = assay: G-CSF serum cytokine response in nontumor-bearing BALB/c mice (ELISA); type: in vivo; conditions: 200 μg/mouse intraperitoneal, six hours after dosing (FIG. 23)
Procedure: The FAP-activated prodrug G-CSF serum cytokine response in nontumor-bearing BALB/c mice was examined. Female BALB/c mice of 11-12 weeks of age were injected intraperitonially with vehicle (PBS), 42CQ-6501, or 42CQ-6501+MSA at 200 μg/mouse, in groups of 5 mice per treatment.
While cytokine recruitment is believed to play an important role in tumor immunity, its presence in the serum represents a systemic response, which can lead to unwanted adverse effects. […] 42CQ is an AFFIMER® polypeptide designed to bind to serum albumin (SEQ ID NO: 133). Consequently, the 42CQ-based conjugates (with 6501) were prepared with or without prebinding to MSA to determine whether there was an evident difference between the two formulations.
Six hours after dosing, blood was collected to measure G-CSF in the serum using a mouse G-CSF Quantikine ELISA kit.

Row | Molecule | maximum tolerated dose (MTD) (mouse tumor model; mouse tumor model) | talabostat MTD relative to the tumor model EC50 (mouse tumor model; talabostat administered alone (FIG. 4A)) | maximum tolerated dose (MTD) (rats) | serum G-CSF response (G-CSF [1]) | serum concentration of G-CSF (G-CSF [2])
1 | CC(C)[C@H](N)C(=O)N1CCC[C@H]1B(O)O [Talabostat, Val-boroPro] | about 3 mg/m^2 | 1/17 | 0.18 mg/m^2 | large serum G-CSF response | –
2 | B1 | – | – | – | – | significant increase
